Measurements from the supplement of paper PMC6045584.
± gives the standard deviation of the averaged measurements.

Legend:
[1] = compound: CNCc1ccc(-c2[nH]c3cc(F)cc4c3c2CCNC4=O)cc1; test: surviving fraction relative to DMSO-only wells; higher = less growth inhibition; conditions: exposure time: 5 days
Procedure, shortened: (§1)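 Viability was scored with CellTiter-Glo luminescence and normalised to the median of DMSO-only wells as surviving fraction. Beforehand, log-phase tumour cell lines were seeded at 250–500 cells per well in 384-well plates, allowed 24 hours, and exposed continuously for five days to inhibitors at 0.5, 1, 5, 10, 50, 100, 500 and 1000 nM. Only lines whose three screens gave replicate Pearson r >0.7 and median Z' >0.3 were kept.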

OLAPARIB = compound: O=C(c1cc(Cc2n[nH]c(=O)c3ccccc23)ccc1F)N1CCN(C(=O)C2CC2)CC1 [OLAPARIB]; test: as above; conditions: exposure time: 5 days
Procedure, shortened: as §1

Row | Test System | surviving fraction ([1]; 0.5 nM) | surviving fraction ([1]; 1 nM) | surviving fraction ([1]; 5 nM) | surviving fraction ([1]; 10 nM) | surviving fraction ([1]; 50 nM) | surviving fraction ([1]; 100 nM) | surviving fraction ([1]; 500 nM) | surviving fraction ([1]; 1000 nM) | surviving fraction (OLAPARIB; 0.5 nM) | surviving fraction (OLAPARIB; 1 nM) | surviving fraction (OLAPARIB; 5 nM) | surviving fraction (OLAPARIB; 10 nM) | surviving fraction (OLAPARIB; 50 nM) | surviving fraction (OLAPARIB; 100 nM) | surviving fraction (OLAPARIB; 500 nM) | surviving fraction (OLAPARIB; 1000 nM)
1 | NOS1 BONE | 1.01 ± 0.042 | 1.08 ± 0.23 | 1.06 ± 0.13 | 0.919 ± 0.11 | 0.795 ± 0.1 | 0.798 ± 0.11 | 0.632 ± 0.049 | 0.602 ± 0.036 | 1.09 ± 0.13 | 0.985 ± 0.096 | 0.981 ± 0.063 | 0.999 ± 0.079 | 0.828 ± 0.062 | 0.773 ± 0.049 | 0.553 ± 0.065 | 0.521 ± 0.071
2 | NY BONE | 0.989 ± 0.016 | 0.99 ± 0.044 | 1.05 ± 0.042 | 1.01 ± 0.055 | 0.981 ± 0.033 | 1.026 ± 0.0093 | 0.895 ± 0.03 | 0.827 ± 0.052 | 1.01 ± 0.016 | 1.03 ± 0.013 | 1.05 ± 0.039 | 1.05 ± 0.061 | 1.09 ± 0.031 | 1.06 ± 0.055 | 0.95 ± 0.022 | 0.849 ± 0.04
3 | OS25HAL BONE | 0.98 ± 0.029 | 1.1 ± 0.024 | 1.017 ± 0.01 | 1.01 ± 0.032 | 0.954 ± 0.034 | 1.01 ± 0.052 | 1.003 ± 0.0071 | 0.98 ± 0.039 | 1.01 ± 0.015 | 1.01 ± 0.033 | 1.04 ± 0.015 | 1.02 ± 0.025 | 1.05 ± 0.019 | 1.01 ± 0.017 | 1.005 ± 0.0085 | 0.99 ± 0.012
4 | OSHN BONE | 1.03 ± 0.028 | 1.06 ± 0.028 | 1.01 ± 0.031 | 1.02 ± 0.048 | 0.945 ± 0.031 | 0.933 ± 0.029 | 0.959 ± 0.02 | 0.857 ± 0.036 | 1.06 ± 0.021 | 1.05 ± 0.023 | 1.07 ± 0.032 | 1.04 ± 0.023 | 1.003 ± 0.01 | 0.984 ± 0.011 | 0.984 ± 0.017 | 0.917 ± 0.013
5 | PCI30 HEADNECK | 0.981 ± 0.059 | 1.04 ± 0.059 | 0.912 ± 0.019 | 0.937 ± 0.037 | 0.916 ± 0.056 | 0.944 ± 0.062 | 0.964 ± 0.044 | 0.956 ± 0.038 | 0.973 ± 0.043 | 0.969 ± 0.12 | 1.03 ± 0.016 | 1.02 ± 0.095 | 0.98 ± 0.069 | 0.92 ± 0.052 | 0.856 ± 0.057 | 0.744 ± 0.05
6 | RDES SOFT TISSUE | 1.15 ± 0.059 | 1.09 ± 0.17 | 1.02 ± 0.049 | 1.06 ± 0.042 | 0.918 ± 0.19 | 1.06 ± 0.089 | 1.14 ± 0.036 | 1.38 ± 0.15 | 1.16 ± 0.19 | 1.11 ± 0.23 | 1.14 ± 0.15 | 0.966 ± 0.14 | 0.85 ± 0.14 | 0.8 ± 0.093 | 1.01 ± 0.065 | 1.41 ± 0.088
7 | S68 BREAST | 1.19 ± 0.22 | 0.82 ± 0.23 | 0.959 ± 0.1 | 0.996 ± 0.26 | 0.676 ± 0.18 | 0.696 ± 0.17 | 0.691 ± 0.15 | 0.425 ± 0.11 | 0.986 ± 0.17 | 0.927 ± 0.014 | 0.925 ± 0.23 | 0.896 ± 0.16 | 0.941 ± 0.084 | 0.771 ± 0.26 | 0.715 ± 0.15 | 0.612 ± 0.097
8 | SAOS2 BONE | 1.12 ± 0.044 | 1.14 ± 0.08 | 1.14 ± 0.02 | 1.12 ± 0.16 | 0.844 ± 0.061 | 0.833 ± 0.069 | 0.747 ± 0.1 | 0.662 ± 0.021 | 1.078 ± 0.0052 | 1.02 ± 0.022 | 1.16 ± 0.072 | 1.07 ± 0.042 | 0.882 ± 0.021 | 0.8217 ± 0.0046 | 0.753 ± 0.013 | 0.692 ± 0.027
9 | SCC003 HEADNECK | 1.03 ± 0.045 | 1.05 ± 0.016 | 1.1 ± 0.059 | 1.05 ± 0.078 | 1.07 ± 0.047 | 1.05 ± 0.091 | 0.99 ± 0.11 | 0.918 ± 0.057 | 1.14 ± 0.066 | 1.03 ± 0.079 | 1.01 ± 0.072 | 1.09 ± 0.11 | 1.13 ± 0.052 | 1 ± 0.046 | 0.974 ± 0.12 | 0.881 ± 0.083
10 | SCC36 HEADNECK | 1.02 ± 0.15 | 0.999 ± 0.1 | 1.11 ± 0.024 | 1.07 ± 0.1 | 0.763 ± 0.057 | 0.728 ± 0.018 | 0.629 ± 0.019 | 0.592 ± 0.069 | 1 ± 0.045 | 0.993 ± 0.12 | 1.06 ± 0.018 | 0.948 ± 0.12 | 0.837 ± 0.1 | 0.697 ± 0.027 | 0.705 ± 0.066 | 0.596 ± 0.066
11 | SCC47 HEADNECK | 1.04 ± 0.067 | 1.03 ± 0.042 | 1.08 ± 0.048 | 1.12 ± 0.025 | 1.04 ± 0.07 | 1.05 ± 0.074 | 1.05 ± 0.032 | 0.987 ± 0.063 | 1.1 ± 0.09 | 0.994 ± 0.062 | 1.14 ± 0.042 | 1.07 ± 0.086 | 1.08 ± 0.098 | 0.989 ± 0.079 | 0.977 ± 0.043 | 1.03 ± 0.11
12 | SCC90 HEADNECK | 0.96 ± 0.039 | 1 ± 0.071 | 0.998 ± 0.058 | 1.06 ± 0.1 | 0.934 ± 0.13 | 0.916 ± 0.062 | 0.9207 ± 0.0047 | 0.948 ± 0.11 | 1.07 ± 0.066 | 1.04 ± 0.093 | 1.06 ± 0.062 | 1.1 ± 0.063 | 0.994 ± 0.037 | 0.942 ± 0.14 | 0.968 ± 0.087 | 0.931 ± 0.091
13 | SG27 HEADNECK | 1.15 ± 0.14 | 1.18 ± 0.21 | 0.878 ± 0.14 | 1.14 ± 0.11 | 0.968 ± 0.093 | 0.923 ± 0.03 | 1.05 ± 0.062 | 0.989 ± 0.063 | 1 ± 0.049 | 1.05 ± 0.14 | 0.969 ± 0.093 | 0.991 ± 0.1 | 0.916 ± 0.074 | 0.995 ± 0.092 | 0.981 ± 0.22 | 1.02 ± 0.11
14 | SG28 HEADNECK | 1.09 ± 0.1 | 0.995 ± 0.011 | 0.953 ± 0.012 | 1 ± 0.073 | 0.763 ± 0.056 | 0.723 ± 0.046 | 0.798 ± 0.086 | 0.76 ± 0.12 | 1.12 ± 0.13 | 0.982 ± 0.12 | 1.02 ± 0.09 | 0.952 ± 0.088 | 0.914 ± 0.13 | 0.887 ± 0.13 | 0.928 ± 0.024 | 0.926 ± 0.065
15 | SG31 HEADNECK | 1.31 ± 0.25 | 1.14 ± 0.13 | 1.11 ± 0.15 | 1.12 ± 0.092 | 0.922 ± 0.12 | 0.845 ± 0.061 | 0.929 ± 0.12 | 0.947 ± 0.09 | 1.17 ± 0.27 | 1.09 ± 0.061 | 1.02 ± 0.12 | 0.985 ± 0.16 | 0.932 ± 0.18 | 0.908 ± 0.13 | 0.946 ± 0.073 | 0.962 ± 0.073
16 | SG32 HEADNECK | 0.993 ± 0.27 | 1.01 ± 0.2 | 0.984 ± 0.17 | 1.02 ± 0.035 | 0.704 ± 0.061 | 0.716 ± 0.14 | 0.682 ± 0.075 | 0.566 ± 0.17 | 1.23 ± 0.41 | 1.43 ± 0.2 | 1.23 ± 0.4 | 1.24 ± 0.15 | 1.03 ± 0.054 | 1.05 ± 0.22 | 0.77 ± 0.042 | 0.795 ± 0.081
